Results: US20250026766A1, “Thiazolopyridyl Amide Derivatives as DNA Polymerase Theta Inhibitors” (BeiGene, Ltd., priority 2022, published 2025)

Molecular target: Pol Theta (1-894) (Homo sapiens (Human), UniProt O75417)
Test: Biochemical Pol Theta (1-894) ATPase IC50 assay (ADP-Glo, ssDNA substrate)
Details: ADP-Glo assay with ssDNA substrate, room temperature
Outline: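 His-tagged human Pol Theta 1-894 from Sf9 baculovirus cells, 2× enzyme solution at 12.5 nM, assayed with ssDNA substrate at room temperature in 40 mM Tris pH 7.5, 20 mM MgCl2, 1 mM DTT, 0.01% BSA, 0.05% Tween-20.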

Sequence of Pol Theta (1-894) (O75417 1-894): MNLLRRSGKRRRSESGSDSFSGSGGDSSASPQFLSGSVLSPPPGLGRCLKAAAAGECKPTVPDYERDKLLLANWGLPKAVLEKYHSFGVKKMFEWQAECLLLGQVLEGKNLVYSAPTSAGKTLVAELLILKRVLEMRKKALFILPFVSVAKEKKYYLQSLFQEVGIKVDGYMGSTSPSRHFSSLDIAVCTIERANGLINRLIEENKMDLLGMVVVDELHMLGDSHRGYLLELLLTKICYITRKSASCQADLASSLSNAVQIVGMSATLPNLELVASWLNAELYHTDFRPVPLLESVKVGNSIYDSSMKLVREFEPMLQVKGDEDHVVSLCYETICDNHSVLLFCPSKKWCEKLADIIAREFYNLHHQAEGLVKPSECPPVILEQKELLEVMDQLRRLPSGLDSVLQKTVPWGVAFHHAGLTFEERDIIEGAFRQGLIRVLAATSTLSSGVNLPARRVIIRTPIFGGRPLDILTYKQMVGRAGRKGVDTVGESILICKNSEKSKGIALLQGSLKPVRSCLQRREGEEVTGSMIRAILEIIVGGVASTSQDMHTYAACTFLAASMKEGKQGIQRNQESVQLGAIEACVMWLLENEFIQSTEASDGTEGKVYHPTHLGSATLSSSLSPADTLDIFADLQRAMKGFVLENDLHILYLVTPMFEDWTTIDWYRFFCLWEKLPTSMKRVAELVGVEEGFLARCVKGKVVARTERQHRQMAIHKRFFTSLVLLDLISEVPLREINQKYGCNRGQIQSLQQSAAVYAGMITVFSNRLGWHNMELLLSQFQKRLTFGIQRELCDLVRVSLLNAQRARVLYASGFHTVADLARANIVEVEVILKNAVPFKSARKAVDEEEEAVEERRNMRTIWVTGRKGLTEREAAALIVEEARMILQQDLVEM

SMILES	IC50
COc1ccc(C#N)cc1-c1cc(C)ncc1C(=O)Nc1nc2ccc(-c3ccc(F)cc3)nc2s1 [Example 30, 4-(5-cyano-2-methoxyphenyl)-N-(5-(4-fluorophenyl)thiazolo[5,4-b]pyridin-2-yl)-6-methylnicotinamide]	222 nM
N#Cc1ccc(C(=O)Nc2nc3ccc(-c4ccc(Cl)cc4)nc3s2)c(N2CCNC(=O)C2)n1 [Example 13, N-(5-(4-chlorophenyl)thiazolo[5,4-b]pyridin-2-yl)-6-cyano-2-(3-oxopiperazin-1-yl)nicotinamide]	147 nM
COc1ccc(C#N)cc1-c1cc(C)ncc1C(=O)Nc1nc2ccc(-c3ccc(NC(C)=O)cc3)nc2s1 [Example 17, N-(5-(4-acetamidophenyl)thiazolo[5,4-b]pyridin-2-yl)-4-(5-cyano-2-methoxyphenyl)-6-methylnicotinamide]	8.1 nM
COc1ccc(C#N)cc1-c1cc(C#N)ncc1C(=O)Nc1nc2ccc(-c3ccc(NC(C)=O)cc3)nc2s1 [Example 36, N-(5-(4-acetamidophenyl)thiazolo[5,4-b]pyridin-2-yl)-6-cyano-4-(5-cyano-2-methoxyphenyl)nicotinamide]	73 nM
COc1cc(Cl)ccc1-c1ccc2nc(NC(=O)c3cnncc3-c3ccccc3OC)sc2n1 [Example 96, N-(5-(4-chloro-2-methoxyphenyl)thiazolo[5,4-b]pyridin-2-yl)-5-(2-methoxyphenyl)pyridazine-4-carboxamide]	60 nM
COc1ccccc1-c1cnncc1C(=O)Nc1nc2ccc(-c3ccn[nH]3)nc2s1 [Example 47, N-(5-(1H-pyrazol-5-yl)thiazolo[5,4-b]pyridin-2-yl)-5-(2-methoxyphenyl)pyridazine-4-carboxamide]	99 nM
COc1ccccc1-c1cnccc1C(=O)Nc1nc2ccc(-c3ccc(Cl)cc3)nc2s1 [Example 3, N-(5-(4-chlorophenyl)thiazolo[5,4-b]pyridin-2-yl)-3-(2-methoxyphenyl)isonicotinamide]	145 nM

Continued, values first:

IC50	SMILES
8.4 nM	COc1ccc(S(C)(=O)=O)cc1-c1cc(C)ncc1C(=O)Nc1nc2ccc(-c3ccc(C(N)=O)c(C)c3)nc2s1 [Example 175, N-(5-(4-carbamoyl-3-methylphenyl)thiazolo[5,4-b]pyridin-2-yl)-4-(2-methoxy-5-(methylsulfonyl)phenyl)-6-methylnicotinamide]
12 nM	COc1ccccc1-c1cnncc1C(=O)Nc1nc2ccc(-c3ccc(Cl)cc3Cl)nc2s1 [Example 117, N-(5-(2,4-dichlorophenyl)thiazolo[5,4-b]pyridin-2-yl)-5-(2-methoxyphenyl)pyridazine-4-carboxamide]
26 nM	Cc1cc(-c2cc(C#N)c(=O)n(C)c2C)c(C(=O)Nc2nc3ccc(-c4ccc(C#N)cc4)nc3s2)cn1 [Example 173, 5-cyano-N-(5-(4-cyanophenyl)thiazolo[5,4-b]pyridin-2-yl)-1,2,6′-trimethyl-6-oxo-1,6-dihydro-[3,4′-bipyridine]-3′-carboxamide]
35 nM	COc1ccc(C#N)cc1-c1cc(C)ncc1C(=O)Nc1nc2ccc(C3CCOC3)nc2s1 (centres unmarked) [Example 127, 4-(5-cyano-2-methoxyphenyl)-6-methyl-N-(5-(tetrahydrofuran-3-yl)thiazolo[5,4-b]pyridin-2-yl)nicotinamide]
27 nM	COc1ccccc1-c1cnncc1C(=O)Nc1nc2ccc(-c3ccc(Cl)cc3C)nc2s1 [Example 97, N-(5-(4-chloro-2-methylphenyl)thiazolo[5,4-b]pyridin-2-yl)-5-(2-methoxyphenyl)pyridazine-4-carboxamide]
25 nM	COc1ccc(C#N)cc1-c1cc(C)ncc1C(=O)Nc1nc2ccc(-c3ccc([C@@H](C)C#N)cc3)nc2s1 [Example 177A, (R)-4-(5-cyano-2-methoxyphenyl)-N-(5-(4-(1-cyanoethyl)phenyl)thiazolo[5,4-b]pyridin-2-yl)-6-methylnicotinamide]
5.4 nM	COc1ccccc1-c1cnncc1C(=O)Nc1nc2ccc(-c3ccc(NC(C)=O)c(F)c3)nc2s1 [Example 142, N-(5-(4-acetamido-3-fluorophenyl)thiazolo[5,4-b]pyridin-2-yl)-5-(2-methoxyphenyl)pyridazine-4-carboxamide]
